The values below are quoted from earlier work in US9233176B2, “Systems and method of delivering fluids to a patient of varying concentration” (Bayer HealthCare LLC, priority 2006, dated 2016).

Like-named read-outs stand apart in the source and are kept apart here.

With `COCC(=O)Nc1c(I)c(C(=O)NCC(O)CO)c(I)c(C(=O)N(C)CC(O)CO)c1I` (centres unmarked) [Iopromide], the iodine flux rate (300 mg I/ml solution, application flow rate 8 ml/s) is given as 2400 mg I/s and the iodine flux rate (370 mg I/ml solution, application flow rate 6 ml/s) is reported as 2220 mg I/s.
